Results on 18 compounds are retold here after patent US11339124B2, “3-(benzylamino)-4-(cyclohexylamino)-n-(2-(piperazin-1-yl)ethyl)benzenesulfonamide derivatives and related ferrostatin-1 analogues as cell death inhibitors for treating e.g. stroke” (VIB VZW, priority 2018, dated 2022).

Like-named read-outs stand apart in the source and are kept apart here.

The IC50 is the concentration at which inhibition is half-maximal.

Series [1] in a line: Kinetic solubility (turbidimetric method). The note with it: 10 mM PBS pH 7.4, 2% DMSO, test range 3.125-200 μM, 2 h at 37° C. The format is physicochemical. As to the method: A turbidimetric method was used. First a series of DMSO compound stock solutions was prepared ([…]). An aliquot of 4 μL stock solution was added to 196 μL PBS buffer (pH 7.4). A series of concentrations were prepared (3.13-200 μM), including a blank on a microtiter plate. (2% DMSO-D6) The microtiter plate was shaken for 10 seconds and incubated for 2 hours at 37° C. When there was no turbidity measured at a given concentration the sample was assumed to be dissolved.

Series [2] has as its system IMR-32 Neuroblastoma cells. Kind of series: Erastin-induced ferroptosis in IMR-32 neuroblastoma cells (Sytox Green cell death readout). The format is cell-based. The note with it: IMR-32 cells, 10 μM erastin, compounds 1 nM to 1 μM, triplicate, read-out: IC50, antiferroptotic activity in response to erastin-induced ferroptosis. Here is the method: In the present invention the potency of a compound inhibiting (or reducing) ferroptosis and/or oxytosis are determined in in vitro or in vivo assays. Typically in vitro assays are used to measure the potency of a candidate compound. Examples of suitable in vitro assays are cellular assays. One non-limiting example of an assay involves the use of the IMR-32 neuroblastoma cell line. The latter is stimulated to enter into ferroptosis upon stimulation with 10 μM erastin, a documented ferroptosis inducer (see for example Dixon et al (2012) Cell 149, 1060-1072 and ferroptosis inhibitors are evaluated for the prevention of erastin induced ferroptosis. Yet another assay is based the glutamate-induced cell death in the hippocampal cell line HT22 and ferroptosis/oxytosis inhibitors are evaluated for the prevention of cell death (see Henke N. et al (2013) Cell Death and Disease 4, e470). Still another assay is based on the sorafinib induced cell death (described to be iron dependent cell death) in hepatocellular carcinoma cells and ferroptosis inhibitors are evaluated for the prevention of cell death (see Louandre C. et al (2013) Int. J. Cancer 133, 1732). The calculated potency of a compound inhibiting ferroptosis and/or oxytosis is typically depicted as an IC50 value. Examples of suitable in vivo assays are typically pre-clinical disease models of for example mice for the diseases benefiting the application of ferroptosis and/or oxytosis inhibitors, as described herein. One non-limiting example of an in vivo assay is based on inducing liver damage in mice by administering the herbicide diquat dibromide monohydrate and ferroptosis inhibitors are evaluated based on reduced levels of liver transaminases in serum (see Ran Q et al (2004) J. Biol. Chem. 279, 53, 55137).
The IC50 values for the individual compounds of the invention were determined in the neuroblastoma, IMR-32 cell line. In brief, IMR-32 cells were subjected to 10 μM erastin, the latter compound is known to induce ferroptosis. A concentration gradient (ranging from 1 nM to 1 μM) of the compounds was applied to the cells. These experiments were performed in a 96-well format (in triplicate), and cell death was analyzed in a fluorescent plate reader by use of a fluorescent cell death dye (1.5 μM Sytox Green). The IC50 values depicted in Table 1 are the concentration values for the individual compounds which are able to overcome ferroptosis.

Series [3] concerns acute iron poisoning induced organ damage. Kind of series: Acute iron poisoning (FeSO4) induced organ damage, plasma LDH and creatine kinase. Type of series: in vivo. As to the method: Equimolar amounts of ferroptosis inhibitors (˜10 mg/kg) were injected iv 15 min before ip injection of FeSO4 (300 mg/kg). Plasma was collected 2 h after FeSO4-challenge and analyzed for the presence of lactate dehydrogenase (LDH) and creatine kinase. Fer-1 is ferrostatin, 3234 is compound 37,3206 is compound 38 and 3203 is compound 39 (see Table 1 for numbering and structure). […] Equimolar amounts of ferroptosis inhibitors (˜10 mg/kg) were injected iv 30 min after ip injection of FeSO4 (300 mg/kg). Plasma was collected 8 h after FeSO4-challenge and analyzed for the presence of lactate dehydrogenase (LDH) and creatine kinase.
We identified acute iron poisoning as a novel experimental model for in rhabdomyolysis-induced kidney failure.

A short description of series [4]: Microsomal (metabolic) stability, human liver microsomes. The note with it: human liver microsomes, 0.5 mg protein/ml, 10 μM compound, 37° C. From the text: By using the measured microsomal in vitro t1/2, a calculated value for the intrinsic clearance Clint can be determined. This value states the measure in which a drug that is not bound to plasma proteins is irreversibly removed from the body by the liver. This value is expressed in mL/min/kg which can be interpreted as the volume of blood in mL that is cleared of a drug per minute per kilogram of body weight. The CLint is less sensitive to used variables in ADME assays since the amount of microsomal protein and the volume of the incubation are all taken into account. (Sohlenius-Sternbeck et al., Xenobiotica, 2012, 42, 841-853)
Liver microsomes (20 mg protein/ml), NADPH regenerating system solutions A & B and 5 mM stock compound solution (100% DMSO) are prepared. The reaction mixture finally contains 713 μL purified water, 200 μL 0.5 M potassium phosphate pH 7.4, 50 μL NADPH regenerating system solution A (BD Biosciences Cat. No. 451220), 10 μL NADPH regenerating system solution B (BD Biosciences Cat. No. 451200) and 2 μL of the compound stock solution (10 μM final concentration). The reaction mixture is warmed to 37° C. for 5 minutes in a water bath and the reaction is initiated by addition of 25 μL of liver microsomes (0.5 mg protein/ml final concentration). At different time points (0 min-15 min-30 min-60 min-120 min-240 min-360 min-24 h), 20 μL is withdrawn and 80 μL cold acetonitrile is added on ice for 10 minutes. Then the mixtures are centrifuged at 13 000 rpm for 5 min at 4° C. The supernatant is further diluted in 90% water/MeCN (1/25) to fall within the range of the LC/MS/MS analysis. At each time point, the compound is analysed using LC/MS/MS with the same UPLC system as described above. A standard curve of six points was made to fit the measured concentrations. Verapamil was used as a positive control.
All obtained readouts were processed using Microsoft Excel. In order to determine the microsomal half-life t1/2 of the compounds, the rate constant k was determined by plotting the exponential decay graphs using GraFit. Microsomal t1/2 was determined using the following formula: […]
(Liver microsomes are a subcellular fraction often used to study metabolism.)

For `Nc1cc(S(=O)(=O)NCCN2CCOCC2)ccc1NC1CCCCC1` [Compound 25, 3-amino-4-(cyclohexylamino)-N-(2-morpholinoethyl)benzenesulfonamide], in series [1], the “Solubility (kinetic)” value was more than 200 µM. Besides, the IC50 in series [2] (Homo sapiens) came out at 448 nM.
For `CN(C)CCNS(=O)(=O)c1ccc(NC2CCCCC2)c(NCc2ccccc2)c1` [Compound 30, 3-(benzylamino)-4-(cyclohexylamino)-N-(2-(dimethylamino)ethyl)benzenesulfonamide], in that order: more than 200 µM and 554 nM.
On the same counts, the results for `CNCCNS(=O)(=O)c1ccc(NC2CCCCC2)c(NCc2ccncc2)c1.Cl` [Compound 47, 4-(cyclohexylamino)-N-(2-(methylamino)ethyl)-3-((pyridin-4-ylmethyl)amino)benzenesulfonamide Hydrochloride] are more than 200 µM and 157 nM.
On the same counts, the results for `Cl.NCCNS(=O)(=O)c1ccc(NC2CCCCC2)c(N)c1` [Compound 28, 3-amino-N-(2-aminoethyl)-4-(cyclohexylamino)benzenesulfonamide Hydrochloride] are more than 200 µM and 306 nM.
On to `Nc1cc(S(=O)(=O)NCCN2CCNCC2)ccc1NC1CCCCC1` [Compound 29, 3-amino-4-(cyclohexylamino)-N-(2-(piperazin-1-yl)ethyl)benzenesulfonamide], for which, in series [1], the “Solubility (kinetic)” value is more than 200 µM. The IC50 in series [2] (Homo sapiens) came out at 296 nM.
For `CN1CCN(CCNS(=O)(=O)c2ccc(NC3CCCCC3)c(N)c2)CC1` [Compound 24, 3-amino-4-(cyclohexylamino)-N-(2-(4-methylpiperazin-1-yl)ethyl)benzenesulfonamide], in that order: more than 200 µM and 236 nM.
On the same counts, the results for `CN(C)CCNS(=O)(=O)c1ccc(NC2CCCCC2)c(N)c1` [Compound 20, 3-amino-4-(cyclohexylamino)-N-(2-(dimethylamino)ethyl)benzenesulfonamide] are more than 200 µM and 160 nM.
As for `CN1CCN(CCNS(=O)(=O)c2ccc(NC3CCCCC3)c(NCc3ccncc3)c2)CC1` [Compound 44, 4-(cyclohexylamino)-N-(2-(4-methylpiperazin-1-yl)ethyl)-3-((pyridin-4-ylmethyl)amino)benzenesulfonamide], the “Solubility (kinetic)” value in series [1] is more than 200 µM. Further, the IC50 in series [2] (Homo sapiens) turned out to be 1520 nM.
For `CN(C)CCNS(=O)(=O)c1ccc(NC2CCCCC2)c(NCc2ccncc2)c1` [Compound 40, 4-(cyclohexylamino)-N-(2-(dimethylamino)ethyl)-3-((pyridin-4-ylmethyl)amino)benzenesulfonamide], in that order: more than 200 µM and 1560 nM.
For `CN1CCN(CCNS(=O)(=O)c2ccc(NC3CCCCC3)c(NCc3ccccc3)c2)CC1` [Compound 34, 3-(benzylamino)-4-(cyclohexylamino)-N-(2-(4-methylpiperazin-1-yl)ethyl)benzenesulfonamide], in that order: more than 200 µM and 1070 nM.
Consider `CCOC(=O)c1ccc(NC2CCCCC2)c(N)c1` [Compound 1, ferrostatin-1], for which the “Protection against organ damage: plasma lactate dehydrogenase (LDH) and creatine kinase levels, prophylactic setting” value in series [3] (~10 mg/kg iv 15 min before FeSO4 300 mg/kg ip, plasma 2 h after challenge (FIG. 5A)) is given as “does not show any significant protection”. For the same compound, the “Protection against organ damage: plasma lactate dehydrogenase (LDH) and creatine kinase levels, therapeutic setting” value in series [3] (~10 mg/kg iv 30 min after FeSO4 300 mg/kg ip, plasma 8 h after challenge (FIG. 5B)) is reported as “only shows minor protection”. Moreover, in series [1], the “Solubility (kinetic)” value was more than 200 µM. Further, the IC50 in series [2] is 33 nM. In addition, the “Microsomal stability (t1/2), Human” value in series [4] turned out to be 6.54 ± 0.18 min.
For `COCCNS(=O)(=O)c1ccc(NC2CCCCC2)c(NCc2ccncc2)c1` [Compound 46, 4-(cyclohexylamino)-N-(2-methoxyethyl)-3-((pyridin-4-ylmethyl)amino)benzenesulfonamide], the “Solubility (kinetic)” value in series [1] is more than 200 µM. Further, in series [2] (Homo sapiens), the IC50 came to 97 nM.
On the same counts, the results for `CNCCNS(=O)(=O)c1ccc(NC2CCCCC2)c(N)c1.Cl` [Compound 27, 3-amino-4-(cyclohexylamino)-N-(2-(methylamino)ethyl)benzenesulfonamide Hydrochloride] are more than 200 µM and 214 nM.
For `COCCNS(=O)(=O)c1ccc(NC2CCCCC2)c(N)c1` [Compound 26, 3-amino-4-(cyclohexylamino)-N-(2-methoxyethyl)benzenesulfonamide], in series [1], the “Solubility (kinetic)” value was more than 200 µM. In series [2] (Homo sapiens), the IC50 was found to be 492 nM.
On the same counts, the results for `Cl.O=S(=O)(NCCN1CCNCC1)c1ccc(NC2CCCCC2)c(NCc2ccncc2)c1` [Compound 49, 4-(cyclohexylamino)-N-(2-(piperazin-1-yl)ethyl)-3-((pyridin-4-ylmethyl)amino)benzenesulfonamide Hydrochloride] are more than 200 µM and 442 nM.
On the same counts, the results for `COCCNS(=O)(=O)c1ccc(NC2CCCCC2)c(NCc2ccccc2)c1` [Compound 36, 3-(benzylamino)-4-(cyclohexylamino)-N-(2-methoxyethyl)benzenesulfonamide] are 25 to 50 µM and 22 nM.
For `O=S(=O)(NCCN1CCOCC1)c1ccc(NC2CCCCC2)c(NCc2ccncc2)c1` [Compound 45, 4-(cyclohexylamino)-N-(2-morpholinoethyl)-3-((pyridin-4-ylmethyl)amino)benzenesulfonamide], in that order: more than 200 µM and 191 nM.
Consider `Cl.NCCNS(=O)(=O)c1ccc(NC2CCCCC2)c(NCc2ccncc2)c1` [Compound 48, N-(2-aminoethyl)-4-(cyclohexylamino)-3-((pyridin-4-ylmethyl)amino)benzenesulfonamide Hydrochloride], for which the “Solubility (kinetic)” value in series [1] was 100 to 200 µM. In addition, the IC50 in series [2] (Homo sapiens) stood at 112 nM.
